Values joined by “and” are separate entries in the source; they are usually repeats but may differ in a detail not shown here. Equal entries are not always repeated.
Tested on: NIH 3T3 cells
Test: Cationic liposome-mediated transfection of cultured cells, luciferase assay
Format: cell-based, murine
Conditions: for Luciferase activity, Average / Luciferase activity, Trial 1 to Trial 4: 48 hours; for Luciferase activity, Trial 1 to Trial 4: individual trials
Procedure: In one embodiment, an appropriate mass of cationic lipid and the neutral lipid dioleoylphosphatidylethanolamine (DOPE) was added as solutions in chloroform to 1.9 mL sample vials to yield the desired molar ratio of cationic lipid:DOPE. The chloroform was removed via rotary evaporation at 37° C. The resulting thin lipid films were placed under vacuum overnight to insure that all traces of solvent have been removed. The lipid mixture was resuspended in 1 mL sterile water at 25° C. until the film is hydrated, and then vortex mixed to afford an emulsion. For the in vitro experiments, these emulsions were formulated as a cationic lipid concentration of 1 mM. For the in vivo experiments, the emulsions were formulated at a cationic lipid concentration of 3 mM.
NIH 3T3 cells were obtained from ATCC (CRL 1658), cultured in Dulbecco's Modified Eagle's Medium with ten percent calf serum, and plated on standard 24 well tissue culture plates 24 hours prior to transfection. Cells were approximately eighty percent confluent at the time of transfection.
NIH 3T3 cells were plated onto 24 well tissue culture plates as described in section 6.1.10. The growth media was removed via aspiration and the cells were washed once with 0.5 mL PBS/well. The liposome/transition metal/nucleic acid solutions were formed through sequential addition of appropriate amounts of DMEM (without serum), the liposome solution (1:1 N,N-[Bis(2-hydroxyethyl)]-N-methyl-N-[2,3-bis(tetradecanoyloxy)propyl] ammonium chloride (DMDHP):DOPE, zinc chloride, and the plasmid DNA pCMV.FOX.Luc.2. The amount of liposome solution used depended on the desired cationic lipid to DNA phosphate ratio. The addition of these substances was followed by thorough vortex mixing and incubation for 15 minutes at room temperature. A 200 microliter aliquot of the resultant transfection complex was added to each well (1 microgram DNA/well, n=4) and the cells were incubated for 4 hours, at 37° C. At this time, 500 microliters of DMEM+10% calf serum/well was added and the cells cultured for approximately 48 hours prior to lysis and analysis. The sample transfections were subsequently repeated a minimum of three times prior to lysis and analysis.
The presently claimed invention describes a new method using a combination of cationic lipid, transition metal enhancer and a nucleic acid of interest for gene delivery. The present invention provides a method that may enhance gene expression by improving the efficiency of gene delivery. This change in gene expression can be quantitated using various assays, such as the luciferase assay. de Wet et al., Molec. Cell Biol. 7:725, 1987. In in vitro experiments described herein in which a cationic lipid/transition metal enhancer/nucleic acid complex was used, the cells were lysed, using a lysis buffer, 48 hours post administration of the pCMV.FOX.Luc-2 containing solution. The lysis buffer contained 100 mM K2PO4 pH 7.0, 1 mM dithiothreitol, and 1% Triton X-100. A 25 μl aliquot of the lysate was analyzed for luciferase activity (de Wet et al., Molec. Cell Biol. 7:725, 1987) using a Monolight 2010 luminometer (Analytical Luminescence Laboratories). Accordingly, luciferase light emissions from each aliquot of the lysis homogenate were measured over a ten second period. Activity was expressed as relative light units, values collectively representing the assay conditions, luciferase concentration, luminometer photomultiplier tube sensitivity and background. Using well known techniques, the luciferase light units may be converted, for example, to picograms of luciferase protein. See, e.g., Felgner et al., U.S. Pat. No. 5,580,899 at Example 13.
To perform this study, cationic lipid/nucleic acid/zinc mixtures were prepared by mixing appropriate amounts of serum-free DMEM, cationic liposomes, zinc chloride and pCMV.FOX.Luc.2 plasmid DNA in a polystyrene tube. […]

[1] = charge ratio 0.5, ZnCl2 1000 μM
[2] = charge ratio 0.75, ZnCl2 0.1 μM
[3] = charge ratio 0.75, ZnCl2 100 μM
[4] = charge ratio 0.75, ZnCl2 1000 μM

Compound: [Cl-].[Cl-].[Zn+2] [ZnCl2, zinc chloride]
- Luciferase activity, Average (charge ratio 0.5, ZnCl2 0.1 μM): 357320 relative light units
- Luciferase activity, Average (charge ratio 0.5, ZnCl2 1 μM): 289649.8 relative light units
- Luciferase activity, Average (charge ratio 0.5, ZnCl2 10 μM): 296498.3 relative light units
- Luciferase activity, Average (charge ratio 0.5, ZnCl2 100 μM): 690512.3 relative light units
- Luciferase activity, Average [1]: 44053.75 relative light units
- Luciferase activity, Average [2]: 528118.8 relative light units
- Luciferase activity, Average (charge ratio 0.75, ZnCl2 1 μM): 141950 relative light units
- Luciferase activity, Average (charge ratio 0.75, ZnCl2 10 μM): 397689.3 relative light units
- Luciferase activity, Average [3]: 334007.5 relative light units
- Luciferase activity, Average [4]: 298625.5 relative light units
- Luciferase activity, Average (charge ratio 1, ZnCl2 0.1 μM): 931446.8 relative light units
- Luciferase activity, Average (charge ratio 1, ZnCl2 1 μM): 835699.8 relative light units
- Luciferase activity, Average (charge ratio 1, ZnCl2 10 μM): 1366067 relative light units
- Luciferase activity, Average (charge ratio 1, ZnCl2 100 μM): 359188.5 relative light units
- Luciferase activity, Average (charge ratio 1, ZnCl2 1000 μM): 414392 relative light units
- Luciferase activity, Average (charge ratio 2, ZnCl2 0.1 μM): 677663.5 relative light units
- Luciferase activity, Average (charge ratio 2, ZnCl2 1 μM): 747069.5 relative light units
- Luciferase activity, Average (charge ratio 2, ZnCl2 10 μM): 1215879 relative light units
- Luciferase activity, Average (charge ratio 2, ZnCl2 100 μM): 827479.8 relative light units
- Luciferase activity, Average (charge ratio 2, ZnCl2 1000 μM): 109543.8 relative light units
- enhancement of in vitro transfection by added zinc (depending on the cationic lipid to nucleic acid charge ratio): two to forty
- Luciferase activity, Trial 1 to Trial 4 (charge ratio 0.5, ZnCl2 0.1 μM): 487868 relative light units and 426369 relative light units and 256897 relative light units and 258146 relative light units
- Luciferase activity, Trial 1 to Trial 4 (charge ratio 0.5, ZnCl2 1 μM): 385049 relative light units and 200471 relative light units and 304108 relative light units and 268971 relative light units
- Luciferase activity, Trial 1 to Trial 4 (charge ratio 0.5, ZnCl2 10 μM): 325001 relative light units and 323001 relative light units and 250110 relative light units and 287881 relative light units
- Luciferase activity, Trial 1 to Trial 4 (charge ratio 0.5, ZnCl2 100 μM): 351939 relative light units and 252969 relative light units and 294018 relative light units and 1863123 relative light units
- Luciferase activity, Trial 1 to Trial 4 [1]: 43835 relative light units and 40236 relative light units and 59395 relative light units and 32749 relative light units
- Luciferase activity, Trial 1 to Trial 4 [2]: 613179 relative light units and 556656 relative light units and 437658 relative light units and 504982 relative light units
- Luciferase activity, Trial 1 to Trial 4 (charge ratio 0.75, ZnCl2 1 μM): 127339 relative light units and 236302 relative light units and 123913 relative light units and 80246 relative light units
- Luciferase activity, Trial 1 to Trial 4 (charge ratio 0.75, ZnCl2 10 μM): 455299 relative light units and 465986 relative light units and 362168 relative light units and 307304 relative light units
- Luciferase activity, Trial 1 to Trial 4 [3]: 404983 relative light units and 351094 relative light units and 358591 relative light units and 221362 relative light units
- Luciferase activity, Trial 1 to Trial 4 [4]: 335343 relative light units and 257292 relative light units and 374511 relative light units and 227356 relative light units
- Luciferase activity, Trial 1 to Trial 4 (charge ratio 1, ZnCl2 0.1 μM): 901184 relative light units and 862221 relative light units and 1113520 relative light units and 848862 relative light units
- Luciferase activity, Trial 1 to Trial 4 (charge ratio 1, ZnCl2 1 μM): 942667 relative light units and 864670 relative light units and 799992 relative light units and 735470 relative light units
- Luciferase activity, Trial 1 to Trial 4 (charge ratio 1, ZnCl2 10 μM): 2145687 relative light units and 1433861 relative light units and 1202748 relative light units and 681970 relative light units
- Luciferase activity, Trial 1 to Trial 4 (charge ratio 1, ZnCl2 100 μM): 262768 relative light units and 379927 relative light units and 447492 relative light units and 346567 relative light units
- Luciferase activity, Trial 1 to Trial 4 (charge ratio 1, ZnCl2 1000 μM): 437998 relative light units and 443459 relative light units and 502263 relative light units and 273848 relative light units
- Luciferase activity, Trial 1 to Trial 4 (charge ratio 2, ZnCl2 0.1 μM): 596911 relative light units and 685311 relative light units and 818392 relative light units and 610040 relative light units
- Luciferase activity, Trial 1 to Trial 4 (charge ratio 2, ZnCl2 1 μM): 661803 relative light units and 814409 relative light units and 754168 relative light units and 757898 relative light units
- Luciferase activity, Trial 1 to Trial 4 (charge ratio 2, ZnCl2 10 μM): 1498720 relative light units and 1238992 relative light units and 1207690 relative light units and 918114 relative light units
- Luciferase activity, Trial 1 to Trial 4 (charge ratio 2, ZnCl2 100 μM): 768327 relative light units and 880621 relative light units and 941720 relative light units and 719251 relative light units
- Luciferase activity, Trial 1 to Trial 4 (charge ratio 2, ZnCl2 1000 μM): 199493 relative light units and 48657 relative light units and 189902 relative light units and 123 relative light units

Reference: patent US6624149B2, “Method for nucleic acid transfection of cells” (Genteric, Inc., priority 2000, dated 2003)
